We go through 2 substances from US7863476B1, “Multifunctional anionic surfactants” (Oil Chem Technologies, priority 2009, dated 2011).

Assay type in all cases: physicochemical
Data set [1] can be described thus: Brine solubilities of surfactant concentrates. The following applies: 5.0% by weight surfactant concentrate, 30° C.; for Brine solubility, BRINE 1: Brine 1: NaCl 3.0%, CaCl2-2H2O 1.0%, MgCl2-6H2O 1.0%; for Brine solubility, BRINE 2: Brine 2: NaCl 1.0%; for Brine solubility, BRINE 3: Brine 3: NaCl 5.0%; for Brine solubility, BRINE 4: Brine 4: NaCl 10%; for Brine solubility, BRINE 5: Brine 5: NaCl 20%. How it is done: (§1) In all cases the surfactant formulation consisted of 30% by weight surfactant, 25% by weight ethylene glycol monobutyl ether (co-surfactant/solvent), and 45% by weight water. Also in all cases except where noted the surfactant formulation was added to the injection brine at a concentration of 0.10 weight percent. These examples use surfactants containing only ethylene oxide in the alcohol ether carboxylate although products containing propylene oxide and ethylene oxide give good results in certain applications.
(§2) Table II is the brine compositions that were used for the IFT testing to show the effect of total dissolved solids and divalent ion concentration on the IFT obtained using various surfactants.
Table III compares the solubilities obtained with 5.0% by weight of various surfactant concentrates in the 5 brines at 30° C.

Data set [2] in a line: Interfacial tension (IFT) by spinning drop interfacial tensiometer. The note with it: 0.10 wt % surfactant, 95° C., spinning 1 hour; for IFT, BRINE 1: Brine 1: NaCl 3.0%, CaCl2-2H2O 1.0%, MgCl2-6H2O 1.0%; for IFT, BRINE 2: Brine 2: NaCl 1.0%; for IFT, BRINE 3: Brine 3: NaCl 5.0%; for IFT, BRINE 4: Brine 4: NaCl 10%; for IFT, BRINE 5: Brine 5: NaCl 20%. The procedure:
as §1, §2
All IFTs were obtained using a University of Texas Model 500 spinning drop interfacial tensiometer after spinning at 95° C. for 1 hour.

A further data set can be described thus: Static adsorption test. An excerpt: Table VII compares the adsorption of the composition of this invention surfactant B with a 1:1 molar mixture of surfactant D and surfactant E to show the effectiveness of having both the sulfonate and ether carboxylate on one molecule. 0.2 wt % surfactant D and 0.2 wt % surfactant E alone were also included to correct for the amount of each of these surfactants adsorbed. All tests were done using 0.20 wt % total surfactant in Brine 2. The static adsorption was run by mixing 50.0 grams of surfactant solution with 10.0 grams of 200 mesh beach sand on a wrist action shaker for 16 hours and then determining the amount of surfactant remaining compared to the original amount added.

Setting [3] is: 0.20 wt % total surfactant in Brine 2, 16 hours.

As to “Sodium salt of carboxylated oleyl alcohol with 9 moles of EO. [Surfactant D]”, in data set [1], the “Brine solubility, BRINE 1” value was “soluble”; the “Brine solubility, BRINE 2” value is given as “soluble”; the “Brine solubility, BRINE 3” value is listed as “soluble”; the “Brine solubility, BRINE 4” value is given as “soluble”. Besides, in data set [1], the “Brine solubility, BRINE 5” value is “soluble”. Also, in data set [2], the “IFT, BRINE 1” value is listed as 0.066 mN/m; the “IFT, BRINE 2” value is 0.031 mN/m; the “IFT, BRINE 3” value was 0.022 mN/m; the “IFT, BRINE 4” value worked out at 0.020 mN/m. Further, the “IFT, BRINE 5” value in data set [2] stood at 0.020 mN/m. In “Static adsorption test” (setting [3]), the “% adsorbed” value is on record as 78% and the “amount adsorbed in mg surfactant/gram sand” value was determined as 7.8 mg/g. The Amount remaining in the data set “Static adsorption test” (of 0.100 g original wt, 0.20 wt % total surfactant in Brine 2, 50.0 g solution with 10.0 g sand, 16 hours) was determined as 0.022. Moreover, the Adsorbed in the data set “Static adsorption test” (of 0.100 g original wt, 0.20 wt % total surfactant in Brine 2, 16 hours) is reported as 0.078.
“Sodium salt of carboxylated oleyl alcohol with 2 moles of EO. [Surfactant C]”: in data set [1], the “Brine solubility, BRINE 1” value was “dis-”; the “Brine solubility, BRINE 2” value was “soluble”; the “Brine solubility, BRINE 3” value is reported as “soluble”; the “Brine solubility, BRINE 4” value was “soluble”. In addition, the “Brine solubility, BRINE 5” value in data set [1] is given as “dis-”. In data set [2], the “IFT, BRINE 1” value turned out to be 0.769 mN/m; the “IFT, BRINE 2” value is given as 0.070 mN/m; the “IFT, BRINE 3” value was 0.090 mN/m; the “IFT, BRINE 4” value was 0.122 mN/m. The “IFT, BRINE 5” value in data set [2] is listed as 0.256 mN/m.
